Patent US4308256A, “Method of inducing analgesia” (American Home Products Corporation, priority 1980, dated 1981)

Assays:
male Charles River rats = test: D'Amour-Smith rat tail-flick procedure (radiant heat, 8 second cut-off), intraventricular injection; format: in vivo
Description: Intraventricular cannulae, made of 27-gauge stainless steel tubing, are implanted in 300-400 g. male Charles River rats under pentobarbital anesthesia. After a recovery period of at least one week, the rats are restrained in a wire-mesh cylindrical chamber so that the tip of the tail can be positioned at the focal point of a radiant heat source. After an acclimatistation period of 5 minutes, the lamp is turned on and an electric clock activated. Movement of the tip of the tail exposes a photocell to the lamp, which turns off the thermal stimulus and stops the clock. If a rat fails to move its tail within 8 seconds, the heat is automatically turned off to prevent blistering. The intensity of the lamp is adjusted in each case to produce at least three baseline tail-flick latencies of 2.5-4.5 seconds. Tests are initially made every 2 minutes, then every 5 minutes and finally every 15 minutes.
Initially, using the above outlined procedure, the effects of intraventricularly administered leucine-enkephalin are tested in rats according to the above procedure.
The rat tail flick procedure is repeated, first by the simultaneous intraventricular injection of both leucine-enkephalin and bestatin and then by the initial injection of bestatin followed one hour later by the injection of leucine-enkephalin.
The above procedure is repeated again, however, the bestatin is administered first and then one hour later the leucine-enkephalin is administered.
The effects of bestatin alone are tested in rats according to the rat tail flick procedure.

bleomycin hydrolase = target: T1, bleomycin hydrolase (Homo sapiens, UniProt Q13867); settings: cited from earlier work
T1 sequence (Q13867 1-455): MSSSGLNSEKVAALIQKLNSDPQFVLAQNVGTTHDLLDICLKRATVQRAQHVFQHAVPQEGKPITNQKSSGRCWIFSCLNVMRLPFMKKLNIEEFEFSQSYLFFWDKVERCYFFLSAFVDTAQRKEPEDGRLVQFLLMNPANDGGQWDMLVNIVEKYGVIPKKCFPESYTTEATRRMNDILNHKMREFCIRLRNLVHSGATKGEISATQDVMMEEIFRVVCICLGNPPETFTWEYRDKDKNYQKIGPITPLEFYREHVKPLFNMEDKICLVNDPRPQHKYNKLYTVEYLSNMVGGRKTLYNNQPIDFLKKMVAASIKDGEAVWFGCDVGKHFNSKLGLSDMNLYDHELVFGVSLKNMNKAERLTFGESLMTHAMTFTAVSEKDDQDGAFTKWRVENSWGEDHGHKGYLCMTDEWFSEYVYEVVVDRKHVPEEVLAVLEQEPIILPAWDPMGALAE

aminopeptidase B = aminopeptidase B (Homo sapiens, UniProt Q9H4A4); settings: cited from earlier work
leucine aminopeptidase = settings: cited from earlier work

Chain of aminopeptidase B (Q9H4A4 whole entry, species assumed): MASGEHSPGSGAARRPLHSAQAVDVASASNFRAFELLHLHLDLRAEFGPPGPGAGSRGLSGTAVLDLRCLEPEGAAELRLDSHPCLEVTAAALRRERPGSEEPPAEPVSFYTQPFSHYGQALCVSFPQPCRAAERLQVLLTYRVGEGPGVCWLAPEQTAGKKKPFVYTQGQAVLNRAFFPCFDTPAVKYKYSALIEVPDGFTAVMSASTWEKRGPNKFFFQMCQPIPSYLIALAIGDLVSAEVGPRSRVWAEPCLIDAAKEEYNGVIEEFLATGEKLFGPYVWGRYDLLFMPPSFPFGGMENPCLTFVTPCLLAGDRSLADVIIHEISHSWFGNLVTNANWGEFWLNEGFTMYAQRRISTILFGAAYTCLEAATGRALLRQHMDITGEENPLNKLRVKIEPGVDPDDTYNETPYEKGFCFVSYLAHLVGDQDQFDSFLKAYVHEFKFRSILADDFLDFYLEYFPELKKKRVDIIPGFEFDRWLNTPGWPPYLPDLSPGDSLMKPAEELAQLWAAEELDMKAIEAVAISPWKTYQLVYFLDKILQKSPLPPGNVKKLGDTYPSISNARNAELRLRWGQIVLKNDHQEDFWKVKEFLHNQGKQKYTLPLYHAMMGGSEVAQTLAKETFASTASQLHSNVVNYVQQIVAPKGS

With `CC(C)C[C@H](NC(=O)[C@@H](O)[C@H](N)Cc1ccccc1)C(=O)O` [bestatin, [(2S,3R)-3-amino-2-hydroxy-4-phenylbutanoyl]-L-leucine] the Tail-flick latency (male Charles River rats; 400 μg bestatin alone into lateral ventricle, Rat 2, 30 min) was 8.00 s, the Tail-flick latency (male Charles River rats; 400 μg bestatin alone into lateral ventricle, Rat 2, 35 min) was 8.00 s and the Tail-flick latency (male Charles River rats; 400 μg bestatin alone into lateral ventricle, Rat 2, 40 min) was 8.00 s. It also gave a Tail-flick latency (male Charles River rats; 400 μg bestatin alone into lateral ventricle, Rat 2, 45 min) of 8.00 s, a Tail-flick latency (male Charles River rats; 400 μg bestatin alone into lateral ventricle, Rat 2, 50 min) of 8.00 s and a Tail-flick latency (male Charles River rats; 400 μg bestatin alone into lateral ventricle, Rat 2, 55 min) of 8.00 s. For the same compound, the Tail-flick latency (male Charles River rats; 400 μg bestatin alone into lateral ventricle, Rat 2, 60 min) was 8.00 s, the Tail-flick latency (male Charles River rats; 400 μg bestatin alone into lateral ventricle, Rat 2, 75 min) was 8.00 s and the Tail-flick latency (male Charles River rats; 400 μg bestatin alone into lateral ventricle, Rat 2, 90 min) was 8.00 s. It also gave a Tail-flick latency (male Charles River rats; 400 μg bestatin alone into lateral ventricle, Rat 2, 105 min) of 8.00 s, a Tail-flick latency (male Charles River rats; 400 μg bestatin alone into lateral ventricle, Rat 2, 120 min) of 8.00 s and a Tail-flick latency (male Charles River rats; 400 μg bestatin alone into lateral ventricle, Rat 2, 135 min) of 8.00 s. The Tail-flick latency (male Charles River rats; 400 μg bestatin alone into lateral ventricle, Rat 2, 150 min) was 8.00 s, the Tail-flick latency (male Charles River rats; 400 μg bestatin alone into lateral ventricle, Rat 2, 165 min) was 8.00 s and the Tail-flick latency (male Charles River rats; 400 μg bestatin alone into lateral ventricle, Rat 2, 180 min) was 8.00 s. It also gave a Tail-flick latency (male Charles River rats; 400 μg bestatin alone into lateral ventricle, Rat 2, 195 min) of 8.00 s, a Tail-flick latency (male Charles River rats; 400 μg bestatin alone into lateral ventricle, Rat 2, 210 min) of 8.00 s and a Tail-flick latency (male Charles River rats; 400 μg bestatin alone into lateral ventricle, Rat 2, 225 min) of 8.00 s. For the same compound, the Tail-flick latency (male Charles River rats; 400 μg bestatin alone into lateral ventricle, Rat 2, 240 min) was 8.00 s, the Tail-flick latency (male Charles River rats; 400 μg bestatin alone into lateral ventricle, Rat 2, 255 min) was 8.00 s and the Tail-flick latency (male Charles River rats; 400 μg bestatin alone into lateral ventricle, Rat 2, 270 min) was 8.00 s. The Tail-flick latency (male Charles River rats; 400 μg bestatin alone into lateral ventricle, Rat 2, 285 min) was 8.00 s, the Tail-flick latency (male Charles River rats; 400 μg bestatin alone into lateral ventricle, Rat 2, 300 min) was 5.19 s and the Tail-flick latency (male Charles River rats; 400 μg bestatin alone into lateral ventricle, Rat 2, 315 min) was 4.32 s. The Tail-flick latency (male Charles River rats; 400 μg bestatin alone into lateral ventricle, Rat 2, 330 min) was 4.11 s, the Tail-flick latency (male Charles River rats; 400 μg leucine-enkephalin + 200 μg bestatin injected together into lateral ventricle, 1 rat, 2 min) was 7.31 s and the Tail-flick latency (male Charles River rats; 400 μg leucine-enkephalin + 200 μg bestatin injected together into lateral ventricle, 1 rat, 4 min) was 7.56 s. For the same compound, the Tail-flick latency (male Charles River rats; 400 μg leucine-enkephalin + 200 μg bestatin injected together into lateral ventricle, 1 rat, 6 min) was 5.78 s, the Tail-flick latency (male Charles River rats; 400 μg leucine-enkephalin + 200 μg bestatin injected together into lateral ventricle, 1 rat, 8 min) was 6.69 s and the Tail-flick latency (male Charles River rats; 400 μg leucine-enkephalin + 200 μg bestatin injected together into lateral ventricle, 1 rat, 10 min) was 6.99 s. The Tail-flick latency (male Charles River rats; 400 μg leucine-enkephalin + 200 μg bestatin injected together into lateral ventricle, 1 rat, 12 min) was 8.00 s, the Tail-flick latency (male Charles River rats; 400 μg leucine-enkephalin + 200 μg bestatin injected together into lateral ventricle, 1 rat, 14 min) was 8.00 s and the Tail-flick latency (male Charles River rats; 400 μg leucine-enkephalin + 200 μg bestatin injected together into lateral ventricle, 1 rat, 16 min) was 6.50 s. It also gave a Tail-flick latency (male Charles River rats; 400 μg leucine-enkephalin + 200 μg bestatin injected together into lateral ventricle, 1 rat, 18 min) of 5.31 s, a Tail-flick latency (male Charles River rats; 400 μg leucine-enkephalin + 200 μg bestatin injected together into lateral ventricle, 1 rat, 20 min) of 2.31 s and a Tail-flick latency (male Charles River rats; 400 μg leucine-enkephalin + 200 μg bestatin injected together into lateral ventricle, 1 rat, 22 min) of 8.00 s. For the same compound, the Tail-flick latency (male Charles River rats; 400 μg leucine-enkephalin + 200 μg bestatin injected together into lateral ventricle, 1 rat, 24 min) was 6.23 s, the Tail-flick latency (male Charles River rats; 400 μg leucine-enkephalin + 200 μg bestatin injected together into lateral ventricle, 1 rat, 26 min) was 8.00 s and the Tail-flick latency (male Charles River rats; 400 μg leucine-enkephalin + 200 μg bestatin injected together into lateral ventricle, 1 rat, 28 min) was 8.00 s. The Tail-flick latency (male Charles River rats; 400 μg leucine-enkephalin + 200 μg bestatin injected together into lateral ventricle, 1 rat, 30 min) was 8.00 s, the Tail-flick latency (male Charles River rats; 400 μg leucine-enkephalin + 200 μg bestatin injected together into lateral ventricle, 1 rat, 32 min) was 4.90 s and the Tail-flick latency (male Charles River rats; 400 μg leucine-enkephalin + 200 μg bestatin injected together into lateral ventricle, 1 rat, 34 min) was 8.00 s. The Tail-flick latency (male Charles River rats; 400 μg leucine-enkephalin + 200 μg bestatin injected together into lateral ventricle, 1 rat, 36 min) was 8.00 s, the Tail-flick latency (male Charles River rats; 400 μg leucine-enkephalin + 200 μg bestatin injected together into lateral ventricle, 1 rat, 38 min) was 4.75 s and the Tail-flick latency (male Charles River rats; 400 μg leucine-enkephalin + 200 μg bestatin injected together into lateral ventricle, 1 rat, 40 min) was 8.00 s. It also gave a Tail-flick latency (male Charles River rats; 400 μg leucine-enkephalin + 200 μg bestatin injected together into lateral ventricle, 1 rat, 42 min) of 3.21 s, a Tail-flick latency (male Charles River rats; 400 μg leucine-enkephalin + 200 μg bestatin injected together into lateral ventricle, 1 rat, 44 min) of 3.29 s and a Tail-flick latency (male Charles River rats; 400 μg leucine-enkephalin + 200 μg bestatin injected together into lateral ventricle, 1 rat, 46 min) of 2.47 s. The “Analgesia induced by bestatin alone” value (male Charles River rats; 400 μg level, lateral ventricle, rats) was “very potent analgesia”, the “Effect on the analgesic effects of leucine-enkephalin” value (male Charles River rats; bestatin administered one hour prior to leucine-enkephalin, intraventricular, rat) was “can be extended by bestatin” and the “Effect on the analgesic effect of leucine-enkephalin” value (male Charles River rats; bestatin given simultaneously with leucine-enkephalin, intraventricular, rat) was “very significantly extend the analgesic effect of leucine-enkephalin”. The “Inhibition of bleomycin hydrolase” value (bleomycin hydrolase) was “inhibitors”, the “Inhibition of aminopeptidase B” value (aminopeptidase B) was “inhibitors” and the “Inhibition of leucine aminopeptidase” value (leucine aminopeptidase) was “inhibitors”.
